Assay results as given in patent US8323971B2, “Differentiation of pluripotent cells into primary germ layer progenitors” (Cambridge Enterprise Limited, priority 2006, dated 2012).

Tested on: H9 hESCs
Assay: Screening of culture conditions by immunostaining for Oct4, Sox2, Brachyury, Sox17
Assay type: cell-based, human
Set-up: key to Pluripotency Oct4, fraction of expressing cells / Neuro Sox2, fraction of expressing cells / Meso Brachyury, fraction of expressing cells / Endo Sox17, fraction of expressing cells: 0 for absence of expression; VL for expressing cells <1%; L for expressing cells <5%; H for expressing cells >10%; VH for expressing cells >50%
Conditions: Conditions CDM (CDM-BSA), 7 days or more
Experimental: Table 2 and Table 3 show the screening of culture conditions for inducing mesoendoderm differentiation into CDM. H9 hESCs were grown for 7 days or more in CDM-BSA or CDM-PVA supplemented with different growth factors (Activin, BMP4, FGF2) or inhibitors (SU5402 for FGF, SB431542 for Activin/Nodal/TGFβ, BIO for βCatenin). Then, immunostaining analysis were used to determine the fractions of cells expressing the pluripotent marker Oct-4, neuroectoderm marker Sox2, the mesoderm marker Brachyury, and the endoderm marker Sox17. The quantities of expressing cells were divided into five arbitrary categories. 0 for absence of expression, VL for expressing cells <1%, L for expressing cells <5%, H for expressing cells >10%, VH for expressing cells >50%. IN red are indicated the conditions allowing the generation of mesendoderm cells expressing Brachyury or Sox17.
HESCs or differentiated progenitors were fixed for 20 minutes at 4° C. in 4% paraformaldehyde (PFA) and then washed three times in PBS. Cells were incubated for 20 minutes at room temperature in PBS containing 10% goat serum (Serotec) and subsequently incubated over night at 4° C. with primary antibody diluted in 1% goat serum in PBS as follows: SSEA-3 (1:100, Santa Cruz), SSAE-1 (1:25), Tra-1-60 (1:100, Santa CruZ), Oct-4 (1:100, Abcam ab18976 or SantaCruz), Sox2 (1:100, Abcam ab15830), Alkaline Phophatase (1:50, Abcam ab17989), Brachyury (1:100, Abcam ab20680 or RandD systems), Sox17 (RandD systems), FoxA2 (1:50, Abcam ab5074), GATA4 (1:250, Santa CruZ), GATA6 (1:200, Abcam ab22600 or Santa Cruz), Vent-2 (1:100, Abcam ab20913), Goosecoid (1:25, Abcam ab21059), Wnt3A (1:100, Abcam ab19925), CXCR4 (1:100, RanD Systems or Pharmingen). Nestin (1:200, Abcam ab5968), NCAM (1:100, Abcam ab8077), GFAP (ZZ), Neurofilament (ZZ), βIII Tubulin (ZZ), Glutamate (ZZ), N-Cadherin (1:100, Abcam ab18203 or ZZ). Cells were then washed three times in PBS and incubated with fluorescein-Isothiocyanate-conjugated anti-mouse IgG or IgM (Sigma 1:200 in 1% goat serum in PBS) or rat IgM (Jackson laboratory 1:300 in goat serum in PBS) or rabbit IgG (Jackson laboratory 1:200 in donkey serum in PBS) for two hours at room temperature. Unbound secondary antibody was removed by 3 washes in PBS. Hoechst 33258 was added to the first wash (Sigma 1:10000).
We then developed a method for inducing differentiation of hESCs into the three primary germ layers. Culture conditions inductive for mesoderm, endoderm and neuroectoderm were screened using an approach based on immunostaining analyses for the expression of proteins specifically expressed by pluripotent cells (Oct-4), neuroectoderm progenitors (Sox2 in absence of Oct4), endoderm progenitors (Sox17) and mesoderm progenitors (Brachyury). In summary, hESCs grown in CDM (CDM-BSA or hu-CDM) were plated on fibronectin in CDM-BSA/AF or CDM-PVA/AF. Then cocktails of growth factors (BMP4, FGF2, Activin) or chemical inhibitors (SU5402, SB431542) were added at different times and for different periods. After 7 to 10 days treatment, cells were fixed and then the expression of Oct-4/Sox2, Sox17 and Brachyury was analysed using immunostaining. The effect of three growth factors on the differentiation of hESCs into the primary germ layers was systematically analysed in our screen. We also studied the function of FGF and Activin signalling pathways in the maintenance of the pluripotent state by analysing the effect of the SU5402, a chemical inhibitor of FGF receptors, and the SB431542, a chemical inhibitor of Activin/TGFβ receptors.

BMP4: Bone Morphogenetic Protein 4 growth factor
0: Endo Sox17, fraction of expressing cells | Meso Brachyury, fraction of expressing cells | Neuro Sox2, fraction of expressing cells | Pluripotency Oct4, fraction of expressing cells
